Reference: patent publication US9682976B2, “Protein kinase C inhibitors and uses thereof” (Rigel Pharmaceuticals, Inc., priority 2012, dated 2017)

System: PKC mediated IL-2 production
Assay: IL-2 ELISA, human primary T cell, anti CD3+CD28+
Format: cell-based
Conditions: human primary T cells stimulated with αCD3 and αCD28, 24 hours
Method in brief: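 Human peripheral blood T cells, pre-expanded with αCD3/αCD28 and IL-2 and then washed free of IL-2, were pre-incubated with compound for 1 h at 37° C. They were then stimulated on plates coated with […] αCD3 and 5 μg/ml αCD28, or with 0.5 ng/ml PMA plus 0.1 uM ionomycin in the counter assay. IL-2 in supernatants was measured by ELISA after 24 h.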

Q: With `CC1(C)C[C@H](Nc2nc(Nc3ccc(N4CC5(COC5)C4)c(C#N)c3)ncc2F)C[C@@H]2CCCN21` [Compound 101, 5-(4-((7R,8aS)-5,5-dimethyloctahydroindolizin-7-ylamino)-5-fluoropyrimidin-2-ylamino)-2-(2-oxa-6-azaspiro[3.3]heptan-6-yl)benzonitrile] as the compound, how does the EC50 (Homo sapiens, T-cell, 24 h) read?
A: 100 to 500 nM

Q: For `CC1(C)CC(Nc2nc(Nc3ccc(O[C@@H]4CCOC4)c(C#N)c3)ncc2F)CC2CCCN21` (mixture of isomers) [Compound 57, 2-((R)-tetrahydrofuran-3-yloxy)-5-(5-fluoro-4-(octahydro-5,5-dimethylindolizin-7-ylamino)pyrimidin-2-ylamino)benzonitrile], which EC50 (Homo sapiens, T-cell, 24 h) is on record?
A: 100 to 500 nM

Q: With `CCOC(=O)C(C)Oc1cc(F)c(Nc2ncc(F)c(N[C@@H]3C[C@@H]4CCCN4C(C)(C)C3)n2)cc1-n1nnn(C)c1=O` (stereo partly drawn) [Compound 184, ethyl 2-(4-((4-(((7R,8aS)-5,5-dimethyloctahydroindolizin-7-yl)amino)-5-fluoropyrimidin-2-yl)amino)-5-fluoro-2-(4-methyl-5-oxo-4,5-dihydro-1H-tetrazol-1-yl)phenoxy)propanoate] as the compound, how does the EC50 (Homo sapiens, T-cell, 24 h) read?
A: 100 to 500 nM

Q: With `Cn1nnn(-c2cc(Nc3ncc(F)c(N[C@@H]4C[C@@H]5CCCN5C(C)(C)C4)n3)ccc2N2CCN(C3COC3)CC2)c1=O` [Compound 117, 1-(5-((4-(((7R,8aS)-5,5-dimethyloctahydroindolizin-7-yl)amino)-5-fluoropyrimidin-2-yl)amino)-2-(4-(oxetan-3-yl)piperazin-1-yl)phenyl)-4-methyl-1,4-dihydro-5H-tetrazol-5-one] as the compound, how does the EC50 (Homo sapiens, T-cell, 24 h) read?
A: 1000 to 10000 nM

Q: With `Cn1nnn(-c2cc(Nc3ncc(F)c(N[C@@H]4C[C@@H]5CCCN5C(C)(C)C4)n3)c(F)cc2OC2CC(OCc3ccccc3)C2)c1=O` (stereo partly drawn) [Compound 225, 1-(2-(3-(benzyloxy)cyclobutoxy)-5-((4-(((7R,8aS)-5,5-dimethyloctahydroindolizin-7-yl)amino)-5-fluoropyrimidin-2-yl)amino)-4-fluorophenyl)-4-methyl-1,4-dihydro-5H-tetrazol-5-one] as the compound, how does the EC50 (Homo sapiens, T-cell, 24 h) read?
A: 100 to 500 nM

Q: With `CC1(C)C[C@H](Nc2nc(Nc3ccc(OCC(O)CO)c(-n4cnnn4)c3)ncc2F)C[C@@H]2CCCN21` (stereo partly drawn) [Compound 214, 3-(4-((4-(((7R,8aS)-5,5-dimethyloctahydroindolizin-7-yl)amino)-5-fluoropyrimidin-2-yl)amino)-2-(1H-tetrazol-1-yl)phenoxy)propane-1,2-diol] as the compound, how does the EC50 (Homo sapiens, T-cell, 24 h) read?
A: 100 to 500 nM

Q: For `CC1(C)CC[C@H]2C[C@@H](Nc3nc(Nc4ccc(OC5CC(O)C5)c(Cl)c4)ncc3F)CCN21` (stereo partly drawn) [Compound 312, 3-(2-Chloro-4-((4-(((7S,8aS)-3,3-dimethyloctahydroindolizin-7-yl)amino)-5-fluoropyrimidin-2-yl)amino)phenoxy)cyclobutan-1-ol], which EC50 (Homo sapiens, T-cell, 24 h) is on record?
A: 100 to 500 nM

Q: Which EC50 (Homo sapiens, T-cell, 24 h) does the source give for `COCCOCCOc1cc(F)c(Nc2ncc(F)c(N[C@@H]3C[C@@H]4CCCN4C(C)(C)C3)n2)cc1-n1nnn(C)c1=O` [Compound 198, 1-(5-((4-(((7R,8aS)-5,5-dimethyloctahydroindolizin-7-yl)amino)-5-fluoropyrimidin-2-yl)amino)-4-fluoro-2-(2-(2-methoxyethoxy)ethoxy)phenyl)-4-methyl-1,4-dihydro-5H-tetrazol-5-one] here?
A: 1000 to 10000 nM

Q: Which EC50 (Homo sapiens, T-cell, 24 h) does the source give for `Cn1nnn(-c2cc(Nc3ncc(F)c(N[C@@H]4C[C@@H]5CCCN5C(C)(C)C4)n3)c(F)cc2OC2COC2)c1=O` [Compound 88, 1-(5-(4-((7R,8aS)-octahydro-5,5-dimethylindolizin-7-ylamino)-5-fluoropyrimidin-2-ylamino)-4-fluoro-2-(oxetan-3-yloxy)phenyl)-4-methyl-1H-tetrazol-5(4H)-one] here?
A: 100 to 500 nM

Q: For `Cn1nc2n(c1=O)-c1cc(Nc3ncc(F)c(N[C@@H]4C[C@@H]5CCCN5C(C)(C)C4)n3)ccc1OC21CCOCC1` [Compound 283, 5-fluoro-N2-(1H-2,4-dihydron-spiro(2H-1,4-benzoxazine-4,4′-[4H]pyran)-2-methyl-[1,2,4]triazolo[3,4-c][1,4]benzoxazin-1-one-8-yl)-N4-((7R,8aS)-octahydro-5,5-dimethylindolizin-7-yl)pyrimidine-2,4-diamine], which EC50 (Homo sapiens, T-cell, 24 h) is on record?
A: 100 to 500 nM

Q: Which EC50 (Homo sapiens, T-cell, 24 h) does the source give for `COc1ccc(Nc2ncc(Cl)c(N[C@@H]3C[C@@H]4CCCN4C(C)(C)C3)n2)cc1-n1nnnc1C` [Compound 151, 5-chloro-N4-((7R,8aS)-5,5-dimethyloctahydroindolizin-7-yl)-N2-(4-methoxy-3-(5-methyl-1H-tetrazol-1-yl)phenyl)pyrimidine-2,4-diamine] here?
A: < 100 nM

Q: Which EC50 (Homo sapiens, T-cell, 24 h) does the source give for `CNc1nc2cc(Nc3ncc(F)c(N[C@@H]4C[C@@H]5CCCN5C(C)(C)C4)n3)c(F)cc2o1` [Compound 253, N5-(4-((7R,8aS)-octahydro-5,5-dimethylindolizin-7-ylamino)-5-fluoropyrimidin-2-yl)-6-fluoro-N2-methylbenzo[d]oxazole-2,5-diamine] here?
A: 1000 to 10000 nM

Q: For `Cc1nnnn1-c1ccc(F)c(Nc2ncc(F)c(N[C@@H]3C[C@@H]4CCCN4C(C)(C)C3)n2)c1` [Compound 142, N4-((7R,8aS)-5,5-dimethyloctahydroindolizin-7-yl)-5-fluoro-N2-(2-fluoro-5-(5-methyl-1H-tetrazol-1-yl)phenyl)pyrimidine-2,4-diamine], which EC50 (Homo sapiens, T-cell, 24 h) is on record?
A: < 100 nM

Q: Which EC50 (Homo sapiens, T-cell, 24 h) does the source give for `CC1(C)C[C@H](Nc2nc(Nc3cccc(-n4nnnc4SCCO)c3)ncc2F)C[C@@H]2CCCN21` [Compound 266, 2-(1-(3-(4-((7R,8aS)-octahydro-5,5-dimethylindolizin-7-ylamino)-5-fluoropyrimidin-2-ylamino)phenyl)-1H-tetrazol-5-ylthio)ethanol] here?
A: < 100 nM

Q: `CO[C@@H](C)COc1cc(F)c(Nc2ncc(Cl)c(N(C[C@H](C)OC)[C@@H]3C[C@@H]4CCCN4C(C)(C)C3)n2)cc1-n1nnn(C)c1=O` [Compound 239, 1-(5-((5-chloro-4-(((7R,8aS)-5,5-dimethyloctahydroindolizin-7-yl)((S)-2-methoxypropyl)amino)pyrimidin-2-yl)amino)-4-fluoro-2-((S)-2-methoxypropoxy)phenyl)-4-methyl-1,4-dihydro-5H-tetrazol-5-one] was tested. Which EC50 (Homo sapiens, T-cell, 24 h) did it give?
A: > 10000 nM

Q: With `CC1(C)C[C@H](Nc2nc(Nc3ccc(O[C@H]4CCNC[C@@H]4F)c(C(F)(F)F)c3)ncc2F)C[C@@H]2CCCN21` [Compound 121] as the compound, how does the EC50 (Homo sapiens, T-cell, 24 h) read?
A: < 100 nM

Q: For `CC1(C)C[C@H](Nc2nc(Nc3ccc(OCC4(CO)COC4)c(C#N)c3)ncc2F)C[C@@H]2CCCN21` [Compound 174, 5-(4-((7R,8aS)-5,5-dimethyloctahydroindolizin-7-ylamino)-5-fluoropyrimidin-2-ylamino)-2-((3-(hydroxymethyl)oxetan-3-yl)methoxy)benzonitrile], which EC50 (Homo sapiens, T-cell, 24 h) is on record?
A: 500 to 1000 nM

Q: With `CC(=O)N(C)c1cc(Nc2ncc(F)c(NC3CC(C)(C)N4CCCC4C3C)n2)c(F)cc1C1CC1` (stereo not shown) [Compound 73] as the compound, how does the EC50 read?
A: 100 to 500 nM

Q: With `CN1C(=O)COc2ccc(Nc3ncc(F)c(N[C@@H]4C[C@@H]5CCCN5C(C)(C)C4)n3)cc21` [Compound 315] as the compound, how does the EC50 (Homo sapiens, T-cell, 24 h) read?
A: 1000 to 10000 nM

Q: `CC1(C)Oc2ccc(Nc3ncc(F)c(N[C@@H]4C[C@@H]5CCCN5C(C)(C)C4)n3)cc2-n2c1nn(C(CO)CCl)c2=O` (stereo partly drawn) [Compound 250, 5-fluoro-N2-(1H-2,4-dihydron-4,4-dimethyl-2-(3-chloropropanol-2-yl)[1,2,4]triazolo[3,4-c][1,4]benzoxazin-1-one-8-yl)-N4-((7R,8aS)-octahydro-5,5-dimethylindolizin-7-yl)pyrimidine-2,4-diamine] was tested. Which EC50 (Homo sapiens, T-cell, 24 h) did it give?
A: 1000 to 10000 nM

Q: For `CC1(C)C[C@H](Nc2nc(Nc3ccc(N4CCOCC4)c(C#N)c3)ncc2F)C[C@@H]2CCCN21` [Compound 106, 5-((4-(((7R,8aS)-5,5-dimethyloctahydroindolizin-7-yl)amino)-5-fluoropyrimidin-2-yl)amino)-2-morpholinobenzonitrile], which EC50 (Homo sapiens, T-cell, 24 h) is on record?
A: 100 to 500 nM

Q: `CC1(C)C[C@H](Nc2nc(Nc3ccc(N4CCC5(CC4)COC5)c(C#N)c3)ncc2F)C[C@@H]2CCCN21` [Compound 100, 5-(4-((7R,8aS)-5,5-dimethyloctahydroindolizin-7-ylamino)-5-fluoropyrimidin-2-ylamino)-2-(2-oxa-7-azaspiro[3.5]nonan-7-yl)benzonitrile] was tested. Which EC50 (Homo sapiens, T-cell, 24 h) did it give?
A: 100 to 500 nM

Q: Which EC50 (Homo sapiens, T-cell, 24 h) does the source give for `CC1(C)C[C@H](Nc2nc(Nc3ccc(NCC(CCl)C(N)=O)c(C(F)(F)F)c3)ncc2F)C[C@@H]2CCCN21` (stereo partly drawn) [Compound 325, 1-(4-(4-((7R,8aS)-octahydro-5,5-dimethylindolizin-7-ylamino)-5-fluoropyrimidin-2-ylamino)-24(2-trifluoromethylphenylamino)methyl)-3-chloropropanamide] here?
A: 500 to 1000 nM

Q: Which EC50 does the source give for `CC1(C)Oc2ccc(Nc3ncc(F)c(N[C@@H]4C[C@@H]5CCCN5C(C)(C)C4)n3)cc2-n2nnnc21` [Compound 4, N2-(4,4-dimethyl-4H-benzo[b]tetrazolo[1,5-d][1,4]oxazin-8-yl)-5-fluoro-N4-(octahydro-5,5-dimethylindolizin-7-amine)pyrimidine-2,4-diamine] here?
A: 1000 to 10000 nM

Q: `COc1cc(F)c(Nc2ncc(F)c(N[C@@H]3C[C@@H]4CCCN4C(C)(C)C3)n2)cc1-n1nnn(C)c1=O` [Compound 22, 1-(5-(4-((7R,8aS)-5,5-dimethyl-octahydroindolizin-7-ylamino)-5-fluoropyrimidin-2-ylamino)-4-fluoro-2-methoxyphenyl)-4-methyl-1H-tetrazol-5(4H)-one] was tested. Which EC50 (Homo sapiens, T-cell, 24 h) did it give?
A: 100 to 500 nM

Q: How did the EC50 (Homo sapiens, T-cell, 24 h) turn out when `CC(O)c1cc(F)c(Nc2ncc(F)c(N[C@@H]3C[C@@H]4CCCN4C(C)(C)C3)n2)cc1-n1nnn(C)c1=O` (stereo partly shown) [Compound 94] was run?
A: 100 to 500 nM

Q: `Cc1ccc(Nc2ncc(Cl)c(N[C@@H]3C[C@@H]4CCCN4C(C)(C)C3)n2)cc1C#N` [Compound 154, 5-((5-chloro-4-(((7R,8aS)-5,5-dimethyloctahydroindolizin-7-yl)amino)pyrimidin-2-yl)amino)-2-methylbenzonitrile] was tested. Which EC50 (Homo sapiens, T-cell, 24 h) did it give?
A: < 100 nM

Q: How did the EC50 (Homo sapiens, T-cell, 24 h) turn out when `Cn1nnn(-c2cc(Nc3ncc(F)c(N[C@@H]4C[C@@H]5CCCN5C(C)(C)C4)n3)ccc2N2CC(O)C2)c1=O` [Compound 328, 1-(5-(4-((7R,8aS)-octahydro-5,5-dimethylindolizin-7-ylamino)-5-fluoropyrimidin-2-ylamino)-2-(3-hydroxyazetidin-1-yl)phenyl)-4-methyl-1H-tetrazol-5(4H)-one] was run?
A: 1000 to 10000 nM
